Tests used:
Experiment in all cases: relative viability (nuclei count vs DMSO), 5 days (fraction); higher = more cells survive
[1] = compound: CCC1=CN=CN=C1N2CCN(CC2)CC3=NC4=C(N3)C=C(C=C4)C(F)(F)F + NC(=O)Nc1cc(-c2cccc(F)c2)sc1C(=O)N[C@H]1CCCNC1 [AZD7762] (partner 0.2 µM)
Method in brief: (§1)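 Five library-drug doses in √10 steps were combined with a fixed anchor-drug dose, or a single drug was given alone, by pin tool to lung cancer cell lines in 1536-well plates the day after seeding. Nuclei were stained and counted after 5 days. Relative viability is the nuclei count in treated wells over that in vehicle wells, taken as the median of duplicate plates.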

[2] = compound: CCC1=CN=CN=C1N2CCN(CC2)CC3=NC4=C(N3)C=C(C=C4)C(F)(F)F + O=C(CCCCCCC(=O)Nc1ccccc1)NO [Vorinostat] (partner 1 µM)
Method in brief: as §1

[3] = compound: CCC1=CN=CN=C1N2CCN(CC2)CC3=NC4=C(N3)C=C(C=C4)C(F)(F)F + O=C(c1cc(Cc2n[nH]c(=O)c3ccccc23)ccc1F)N1CCN(C(=O)C2CC2)CC1 [Olaparib] (partner 8 µM)
Method in brief: as §1

[4] = compound: CCn1c(-c2nonc2N)nc2cnc(Oc3cccc(NC(=O)c4ccc(OCCN5CCOCC5)cc4)c3)cc21 + O=C(CCCCCCC(=O)Nc1ccccc1)NO [Vorinostat] (partner 1 µM)
Method in brief: as §1

Row | Cell Line | relative viability ([1]; first compound 0.04 µM) | relative viability ([1]; first compound 0.1265 µM) | relative viability ([1]; first compound 0.4 µM) | relative viability ([1]; first compound 1.265 µM) | relative viability ([1]; first compound 4 µM) | relative viability ([2]; first compound 0.04 µM) | relative viability ([2]; first compound 0.1265 µM) | relative viability ([2]; first compound 0.4 µM) | relative viability ([2]; first compound 1.265 µM) | relative viability ([2]; first compound 4 µM) | relative viability ([3]; first compound 0.04 µM) | relative viability ([3]; first compound 0.1265 µM) | relative viability ([3]; first compound 0.4 µM) | relative viability ([3]; first compound 1.265 µM) | relative viability ([3]; first compound 4 µM) | relative viability ([4]; first compound 0.04 µM) | relative viability ([4]; first compound 0.1265 µM) | relative viability ([4]; first compound 0.4 µM) | relative viability ([4]; first compound 1.265 µM) | relative viability ([4]; first compound 4 µM)
1 | NCI-H838 | 1.04 | 0.877 | 0.904 | 0.829 | 0.948 | 0.785 | 0.695 | 0.821 | 0.66 | 0.662 | 0.816 | 0.752 | 0.737 | 0.712 | 0.74 | 0.459 | 0.372 | 0.337 | 0.329 | 0.205
2 | HARA | 0.484 | 0.263 | 0.339 | 0.292 | 0.436 | 0.542 | 0.492 | 0.57 | 0.556 | 0.466 | 0.743 | 0.923 | 0.763 | 0.737 | 0.84 | 0.524 | 0.551 | 0.538 | 0.577 | 0.645
3 | NCI-H23 | 0.25 | 0.202 | 0.162 | 0.229 | 0.325 | 0.567 | 0.65 | 0.453 | 0.606 | 0.808 | 0.353 | 0.4 | 0.29 | 0.345 | 0.243 | 0.735 | 0.526 | 0.3 | 0.531 | 0.55
4 | LCLC-97TM1 | 0.263 | 0.206 | 0.22 | 0.309 | 0.274 | 0.607 | 0.685 | 0.642 | 0.711 | 0.751 | 0.425 | 0.418 | 0.335 | 0.329 | 0.278 | 1.12 | 0.856 | – | 0.705 | 0.662
5 | LC-2-ad | 0.87 | 0.807 | 0.823 | 0.81 | 0.804 | 0.737 | 0.652 | 0.636 | 0.687 | 0.682 | 0.733 | 0.644 | 0.661 | 0.653 | 0.636 | 0.728 | 0.618 | 0.258 | 0.29 | 0.277
6 | SW 1573 | – | – | – | – | – | 0.623 | 1.08 | 0.756 | 0.575 | 0.734 | 0.447 | 0.462 | 0.45 | 0.443 | 0.379 | 0.966 | 0.534 | 0.37 | 0.304 | 0.237
7 | EKVX | 0.724 | 0.712 | 0.756 | 0.646 | 0.777 | 0.767 | 0.678 | 0.739 | 0.575 | 0.659 | 0.877 | 0.734 | 0.89 | 0.684 | 0.862 | 0.786 | 0.365 | 0.757 | 0.513 | 0.647
8 | NCI-H2087 | 1.34 | 1.26 | 1.43 | 1.17 | 1.21 | 0.929 | 0.881 | 0.707 | 0.659 | 0.638 | 0.791 | 0.542 | 0.623 | 0.522 | 0.423 | 0.776 | 0.584 | 0.668 | 0.565 | 0.509
9 | HCC-827 | 0.186 | 0.233 | 0.208 | 0.196 | 0.174 | 0.895 | 0.856 | 0.788 | 0.781 | 0.744 | 0.698 | 0.706 | 0.721 | 0.567 | 0.595 | 0.92 | 0.881 | 0.806 | 0.525 | 0.701
10 | NCI-H661 | – | – | – | – | – | 0.78 | 0.794 | 0.757 | 0.704 | 0.663 | 0.802 | 0.719 | 0.767 | 0.661 | 0.738 | 0.891 | 0.906 | 0.888 | 0.627 | 0.517
11 | CAL-12T | 0.501 | 0.6 | 0.609 | 0.679 | 0.604 | 0.664 | 0.8 | 0.623 | 0.782 | 0.568 | 0.75 | 0.726 | 0.721 | 0.661 | 0.667 | 1.44 | 0.862 | 0.731 | 0.553 | 0.288
12 | NCI-H2342 | 0.441 | 0.389 | 0.467 | 0.397 | 0.419 | 0.629 | 0.736 | 0.744 | 0.531 | 0.565 | 0.51 | 0.402 | 0.384 | 0.275 | 0.34 | 0.834 | 0.746 | 0.752 | 0.468 | 0.743
13 | SW 900 | 0.552 | 0.571 | 0.48 | – | 0.702 | 0.454 | 0.45 | 0.403 | – | 0.422 | 0.928 | 0.764 | 0.863 | – | 0.82 | 0.651 | 0.602 | 0.76 | 0.61 | 0.621
14 | IA-LM | – | – | – | – | – | – | 0.979 | 0.937 | 0.932 | 0.962 | 0.649 | 0.838 | 0.812 | 0.703 | 0.765 | 1.08 | 0.997 | 1.03 | 0.998 | 1.39
15 | EPLC-272H | 0.172 | 0.209 | 0.207 | 0.245 | 0.262 | 0.311 | 0.598 | 0.373 | 0.392 | 0.351 | 0.687 | 0.693 | 0.835 | 0.617 | 0.695 | 0.467 | 0.545 | 0.425 | 0.357 | 0.348
16 | A-427 | 0.735 | 0.788 | 0.631 | 0.641 | 0.785 | 0.776 | 0.836 | 0.794 | 0.721 | 0.809 | 0.683 | 0.72 | 0.636 | 0.698 | 0.595 | 0.812 | 0.733 | 0.587 | 0.243 | 0.284
17 | NCI-H650 | 0.844 | 0.909 | 1.01 | 1.29 | 0.946 | 0.414 | 0.455 | 0.448 | 0.363 | 0.477 | 0.386 | 0.373 | 0.393 | 0.331 | 0.347 | 0.503 | 0.28 | 0.24 | 0.192 | 0.224
